In patent US9567578B1, “Cell line containing a knockout of the glutamine synthetase (GS) gene and a method of producing target proteins using a GS knockout HEK293 cell line” (Korea Advanced Institute of Science and Technology, priority 2016, dated 2017):
Where two headings read alike, the source gives them in different places.

Experiments:
[1] = tested on: HEK293_GS-KO host cell line; settings: glutamine-free selection medium
Procedure: (§1) First, the cells were inoculated in T-25 flask containing 5 ml of DMEM supplemented with 1×GSEM, 7% (v/v) FBS and glutamine at the density of 4×10^5 cells/ml. 24 hours later, when the cultured cells reached 90% of confluency in the flask, the vector containing a target protein gene mixed with liposome was additionally added to the gs gene knockout HEK293 cell line prepared in Experimental Example 1. 24 hours later, the selection marker protein (GS) inhibitor MSX was treated to the selection medium (glutamine-free DMEM supplemented with 1×GSEM and 10% (v/v) dFBS) at the concentrations of 0 μM, 25 μM, 50 μM, and 100 μM. The cells introduced with the vector were inoculated in the 96 well plate by 200 μl/well. The wild type HEK293 host cell line was also introduced with a target protein gene by the same manner as described above, followed by the selection from the 96 well plate. The cell concentration for the inoculation into the 96 well plate was determined by the concentration at which only one clone would survive after 3 weeks of selection period. To select the MSX resistant cell line (transformed cell line), the cells showing MSX resistance could be collected as a pool or prepared as each individual clone and herein the cell line was collected as an individual clone.
(§2) In the table above, “survival rate” was obtained by dividing the number of all the wells containing the cell by the number of the total inoculated wells.
(§3) The cells inoculated in a 96 well plate were observed under microscope and the medium was replaced every 5˜7 days. […] The collected cells were inoculated in a 48 well plate (500 μl). When the cells were grown in the well, the cells were inoculated again in a 24 well plate (1 ml). When the cells were fully grown in the 24 well plate, the cells were collected and inoculated in another 24 well plate containing 1 ml of culture medium at the density of 1×10^5 cells/ml. To quantify the production of the target protein, batch culture was performed for 6 days. On the 6th day, the medium was collected and ELISA was performed with the target protein to measure the productivity of each clone. By the method above, 50 clones originated from the gs knockout HEK93 cell line were constructed each in the presence of 0 μM, 25 μM, and 50 μM of MSX. 50 control clones originated from the wild type HEK293 cell line were also constructed for comparison.
(§4) In the Table above, “selection efficiency” indicates the portion of high production clones (those clones that could produce a target protein at least 1 μg/μl until the 6th day) in 50 constructed clones at each condition.

[2] = tested on: wild type HEK293 host cell line; settings: glutamine-free selection medium
Procedure: as §1, §2, §3, §4

[3] = tested on: HEK293 cell line; settings: glutamine-free EX-CELL 293 SFM, MSX 0-1000 μM, suspension culture
Procedure: The cell growth rate and the cell viability were investigated in the course of culture of HEK293 cell line with the addition of different concentrations of MSX.
Particularly, HEK293 host cells were inoculated in 50 ml of the glutamine-free EX-CELL® 293 SFM medium (Sigma), and also inoculated in the control medium supplemented with 4 mM glutamine. To the experimental group, MSX, the glutamine synthetase inhibitor, was added at the concentrations of 0 μM, 100 μM, 300 μM, 500 μM, and 1000 μM, respectively. The cell mixture was inoculated in Erlenmeyer flask at the density of 3×10^5 cells/ml, followed by suspension culture. 1 ml of the cell culture fluid was taken from each flask every 24 hours, followed by investigation of the cell concentration and the cell viability.

CS(=N)(=O)CC[C@H](N)C(=O)O (stereo partly shown) [MSX, methionine sulfoximine]
Survival rate ([1]; MSX 25 μM, inoculation 2000 cells/96 well): 11.9% | Survival rate ([1]; MSX 50 μM, inoculation 2000 cells/96 well): 2.3% | Survival rate ([1]; MSX 100 μM, inoculation 5000 cells/96 well): 0.5% | Survival rate ([2]; MSX 25 μM, inoculation 1 cells/96 well): 22.9% | Survival rate ([2]; MSX 50 μM, inoculation 10 cells/96 well): 28.1% | Survival rate ([2]; MSX 100 μM, inoculation 500 cells/96 well): 75.8% | resistance against MSX (cell growth and cell viability) [3]: high resistance
